Results taken from ChEMBL document CHEMBL3885881, “DrugMatrix”.

Species: Rattus norvegicus
Test: DrugMatrix - Regimen: Daily Repeat
Format: toxicity, organism-based, Sprague-Dawley
Set-up: regimen Daily Repeat, gender Male, age 6-8 weeks
Conditions: in vivo, po, route oral GAVAGE, vehicle .5 % CMC; for ABSOLUTE BASOPHIL / ABSOLUTE EOSINOPHIL / ABSOLUTE LYMPHOCYTE / ABSOLUTE MONOCYTE / ABSOLUTE SEGMENTED NEUTROPHIL / BASOPHIL / EOSINOPHIL / ERYTHROCYTE COUNT / HEMATOCRIT / HEMOGLOBIN / LEUKOCYTE COUNT / LYMPHOCYTE / MEAN CORPUSCULAR HEMOGLOBIN / MEAN CORPUSCULAR HEMOGLOBIN CONCENTRATION / MEAN CORPUSCULAR VOLUME / MONOCYTE / NEUTROPHIL / NUCLEATED RED BLOOD CELLS / PLATELET COUNT: tissue Blood; for ALANINE AMINOTRANSFERASE / ALBUMIN / ALKALINE PHOSPHATASE / ASPARTATE AMINOTRANSFERASE / BLOOD UREA NITROGEN / CARBON DIOXIDE / CHLORIDE / CHOLESTEROL / CREATINE PHOSPHOKINASE / CREATININE / GLUCOSE / LACTATE DEHYDROGENASE / LIPASE / PHOSPHORUS / POTASSIUM / SODIUM / TOTAL BILIRUBIN / TOTAL PROTEIN / URIC ACID: tissue Plasma
[1] = 0 mg/kg, 72 h, dose level Control, time 3 day
[2] = 0 mg/kg, 120 h, dose level Control, time 5 day
[3] = 10 mg/kg, 72 h, dose level Low, time 3 day

For `CCOC(=O)[C@H](CCc1ccccc1)N[C@@H](C)C(=O)N1Cc2ccccc2C[C@H]1C(=O)O`, the “ABSOLUTE BASOPHIL” value [1] was 0 CELLS/uL, the “ABSOLUTE EOSINOPHIL” value [1] was 0 CELLS/uL and the “ABSOLUTE LYMPHOCYTE” value [1] was 12191.17 CELLS/uL. For the same molecule, the “ABSOLUTE MONOCYTE” value [1] was 183.17 CELLS/uL, the “ABSOLUTE SEGMENTED NEUTROPHIL” value [1] was 1192.33 CELLS/uL and the BASOPHIL [1] was 0%. For the same molecule, the EOSINOPHIL [1] was 0%, the “ERYTHROCYTE COUNT” value [1] was 5.51 x10E6/uL and the HEMATOCRIT [1] was 35.45%. For the same molecule, the HEMOGLOBIN [1] was 13.82 G/DL, the “LEUKOCYTE COUNT” value [1] was 13.57 x10E3/uL and the LYMPHOCYTE [1] was 89.83%. The “MEAN CORPUSCULAR HEMOGLOBIN” value [1] was 25.1 pg, the “MEAN CORPUSCULAR HEMOGLOBIN CONCENTRATION” value [1] was 38.98 G/DL and the “MEAN CORPUSCULAR VOLUME” value [1] was 64.42 fL. For the same molecule, the MONOCYTE [1] was 1.33%, the NEUTROPHIL [1] was 8.83% and the “NUCLEATED RED BLOOD CELLS” value [1] was 0 /100WBC. For the same molecule, the “PLATELET COUNT” value [1] was 1118.17 x10E3/uL, the “ALANINE AMINOTRANSFERASE” value [1] was 55 u/L and the ALBUMIN [1] was 4.15 G/DL. The “ALKALINE PHOSPHATASE” value [1] was 449.5 u/L, the “ASPARTATE AMINOTRANSFERASE” value [1] was 112.83 u/L and the “BLOOD UREA NITROGEN” value [1] was 17.33 mg/dL. For the same molecule, the “CARBON DIOXIDE” value [1] was 29.5 mmol/L, the CHLORIDE [1] was 101 MEQ/L and the CHOLESTEROL [1] was 70 mg/dL. The “CREATINE PHOSPHOKINASE” value [1] was 1325.83 u/L, the CREATININE [1] was 0.18 mg/dL and the GLUCOSE [1] was 171.5 mg/dL. For the same molecule, the “LACTATE DEHYDROGENASE” value [1] was 386 u/L, the LIPASE [1] was 10 u/L and the PHOSPHORUS [1] was 11.57 mg/dL. The POTASSIUM [1] was 6.21 MEQ/L, the SODIUM [1] was 141.65 MEQ/L and the “TOTAL BILIRUBIN” value [1] was 0.15 mg/dL. For the same molecule, the “TOTAL PROTEIN” value [1] was 5.75 G/DL, the “URIC ACID” value [1] was 1.28 mg/dL and the “ABSOLUTE BASOPHIL” value [2] was 0 CELLS/uL. For the same molecule, the “ABSOLUTE EOSINOPHIL” value [2] was 138.17 CELLS/uL, the “ABSOLUTE LYMPHOCYTE” value [2] was 13283.17 CELLS/uL and the “ABSOLUTE MONOCYTE” value [2] was 303.83 CELLS/uL. The “ABSOLUTE SEGMENTED NEUTROPHIL” value [2] was 1308.17 CELLS/uL, the BASOPHIL [2] was 0% and the EOSINOPHIL [2] was 1%. The “ERYTHROCYTE COUNT” value [2] was 5.32 x10E6/uL, the HEMATOCRIT [2] was 33.8% and the HEMOGLOBIN [2] was 13.63 G/DL. The “LEUKOCYTE COUNT” value [2] was 15.03 x10E3/uL, the LYMPHOCYTE [2] was 88.33% and the “MEAN CORPUSCULAR HEMOGLOBIN” value [2] was 25.68 pg. For the same molecule, the “MEAN CORPUSCULAR HEMOGLOBIN CONCENTRATION” value [2] was 40.35 G/DL, the “MEAN CORPUSCULAR VOLUME” value [2] was 63.67 fL and the MONOCYTE [2] was 1.83%. The NEUTROPHIL [2] was 8.83%, the “NUCLEATED RED BLOOD CELLS” value [2] was 0 /100WBC and the “PLATELET COUNT” value [2] was 1097.5 x10E3/uL. The “ALANINE AMINOTRANSFERASE” value [2] was 54.5 u/L, the ALBUMIN [2] was 4.27 G/DL and the “ALKALINE PHOSPHATASE” value [2] was 337 u/L. For the same molecule, the “ASPARTATE AMINOTRANSFERASE” value [2] was 94.67 u/L, the “BLOOD UREA NITROGEN” value [2] was 17 mg/dL and the “CARBON DIOXIDE” value [2] was 28.33 mmol/L. The CHLORIDE [2] was 101.5 MEQ/L, the CHOLESTEROL [2] was 71.33 mg/dL and the “CREATINE PHOSPHOKINASE” value [2] was 628.17 u/L. The CREATININE [2] was 0.19 mg/dL, the GLUCOSE [2] was 177.83 mg/dL and the “LACTATE DEHYDROGENASE” value [2] was 500.5 u/L. It also gave an LIPASE [2] of 9.5 u/L, a PHOSPHORUS [2] of 12.3 mg/dL and a POTASSIUM [2] of 5.63 MEQ/L. The SODIUM [2] was 143.03 MEQ/L, the “TOTAL BILIRUBIN” value [2] was 0.2 mg/dL and the “TOTAL PROTEIN” value [2] was 6.02 G/DL. For the same molecule, the “URIC ACID” value [2] was 1.5 mg/dL, the “ABSOLUTE BASOPHIL” value [3] was 0 CELLS/uL and the “ABSOLUTE EOSINOPHIL” value [3] was 39 CELLS/uL. For the same molecule, the “ABSOLUTE LYMPHOCYTE” value [3] was 11213 CELLS/uL, the “ABSOLUTE MONOCYTE” value [3] was 0 CELLS/uL and the “ABSOLUTE SEGMENTED NEUTROPHIL” value [3] was 1148 CELLS/uL. For the same molecule, the BASOPHIL [3] was 0%, the EOSINOPHIL [3] was 0.33% and the “ERYTHROCYTE COUNT” value [3] was 5.3 x10E6/uL. For the same molecule, the HEMATOCRIT [3] was 34.07%, the HEMOGLOBIN [3] was 13.93 G/DL and the “LEUKOCYTE COUNT” value [3] was 12.4 x10E3/uL. The LYMPHOCYTE [3] was 90.33%, the “MEAN CORPUSCULAR HEMOGLOBIN” value [3] was 26.33 pg and the “MEAN CORPUSCULAR HEMOGLOBIN CONCENTRATION” value [3] was 40.9 G/DL. The “MEAN CORPUSCULAR VOLUME” value [3] was 64.37 fL, the MONOCYTE [3] was 0% and the NEUTROPHIL [3] was 9.33%. The “NUCLEATED RED BLOOD CELLS” value [3] was 0 /100WBC and the “PLATELET COUNT” value [3] was 1446.33 x10E3/uL.
